Measurements from ChEMBL document CHEMBL5032531, “Hypocholesterolemic Efficacy of Secoisolariciresinol Diglucoside and Its Polymer in Rat” (J Nat Prod, 2021).

Legend:
Rattus norvegicus [1] = test: Hypocholesterolemic activity in Wistar rat model with high cholesterol diet assessed as amount of Total cholesterol in serum at 6 mg/kg, po qd measured after 23 days by microplate reader assay relative to control; format: functional; details: time 23 day
Rattus norvegicus [2] = test: Hypocholesterolemic activity in Wistar rat model with high cholesterol diet assessed as reduction in liver NAFLD activity score at 6 mg/kg, po qd measured after 23 days by H and E staining assay; format: functional; details: time 23 day
Rattus norvegicus [3] = test: Hypocholesterolemic activity in Wistar rat model with high cholesterol diet assessed as amount of LDL-C in serum at 6 mg/kg, po qd measured after 23 days by microplate reader assay relative to control; format: functional; details: time 23 day
Rattus norvegicus [4] = test: Hypocholesterolemic activity in Wistar rat model with high cholesterol diet assessed as reduction of steatosis at 6 mg/kg, po qd measured after 23 days by H and E staining assay; format: functional; details: time 23 day
Rattus norvegicus [5] = test: Hypocholesterolemic activity in Wistar rat model with high cholesterol diet assessed as amount of Triglycerides in serum at 6 mg/kg, po qd measured after 23 days by microplate reader assay relative to control; format: functional; details: time 23 day
Rattus norvegicus [6] = test: Hypocholesterolemic activity in Wistar rat model with high cholesterol diet assessed as amount of HDL-C in serum at 6 mg/kg, po qd measured after 23 days by microplate reader assay relative to control; format: functional; details: time 23 day
Rattus norvegicus [7] = test: Hypocholesterolemic activity in Wistar rat model with high cholesterol diet assessed as reduction of steatosis at 6 mg/kg, po qd measured after 23 days by H and E staining assay relative to control; format: functional; set-up: scale not given: the % may be the effect or the level left; details: time 23 day
Rattus norvegicus [8] = test: Effect on Wistar rat model with high cholesterol diet assessed as ratio of liver weight to body weight at 6 mg/kg, po qd measured after 23 days; format: ADME, organism-based; details: in vivo, 552 h, time 23 day
Rattus norvegicus [9] = test: Effect on body weight gain in Wistar rat model with high cholesterol diet at 6 mg/kg, po qd measured after 23 days relative to control; format: ADME, organism-based; details: in vivo, 552 h, time 23 day
Rattus norvegicus [10] = test: Effect on liver weight in Wistar rat model with high cholesterol diet at 6 mg/kg, po qd measured after 23 days; format: ADME, organism-based; details: in vivo, 552 h, time 23 day
Rattus norvegicus [11] = test: Hypocholesterolemic activity in Wistar rat model with high cholesterol diet assessed as liver NAFLD activity score at 6 mg/kg, po qd measured after 23 days by H and E staining assay relative to control; format: functional; details: time 23 day
Rattus norvegicus [12] = test: Effect on body weight in Wistar rat model with high cholesterol diet at 6 mg/kg, po qd measured after 23 days; format: ADME, organism-based; details: in vivo, 552 h, time 23 day
Rattus norvegicus [13] = test: Hypocholesterolemic activity in Wistar rat model with high cholesterol diet assessed as reduction in liver lobular inflammation at 6 mg/kg, po qd measured after 23 days by H and E staining assay; format: functional; details: time 23 day

- Activity (Rattus norvegicus [10]): 10.4 g
Structure (SMILES): COc1cc(C[C@H](CO[C@@H]2O[C@H](CO)[C@@H](O)[C@H](O)[C@H]2O)[C@@H](CO[C@@H]2O[C@H](CO)[C@@H](O)[C@H](O)[C@H]2O)Cc2ccc(O)c(OC)c2)ccc1O [(+)-SECOISOLARICIRESINOLDIGLUCOSIDE]
- Activity (Rattus norvegicus [1]): 10%
- Activity (Rattus norvegicus [2]): 2.4
- Activity (Rattus norvegicus [3]): 14%
- Activity (Rattus norvegicus [4]): 1.4
- Activity (Rattus norvegicus [5]): 15%
- Activity (Rattus norvegicus [6]): 24%
- Activity (Rattus norvegicus [7]): 22.2%
- Activity (Rattus norvegicus [8]): 31.5 g/kg
- Activity (Rattus norvegicus [9]): 32%
- Activity (Rattus norvegicus [11]): 14.3%
- Activity (Rattus norvegicus [12]): 330 g
- Activity (Rattus norvegicus [13]): 1
